Source: patent publication US8288374B2, “Medicinal composition containing benzo[a]phenoxazine compound as the active ingredient for prevention or treatment of protozoal disease” (Hoshi University, priority 2008, dated 2012)
In brackets after ≈: the same amount, converted by molar mass. Like-named read-outs stand apart in the source and are kept apart here.

Columns and labels:
Type in all cases: cell-based
Plasmodium falciparum K1 = test: Chloroquine resistant-Plasmodium falciparum growth inhibition screening test; details: for Selective toxicity: EC50 against rat L6 cells / EC50 against P. falciparum K1; for EC50: Plasmodium falciparum, Table 2, unit inferred, chloroquine-resistant K1 strain, read-out: P. falciparum K1
Procedure: In the present experiment, protozoa of plasmodium falsiparum K1 strain was used. RPMI-1640 medium sterilized with a filter to which human serum was added to be 5%, was used in the experiment. Malarial parasites were cultured under 3% O2 concentration, 4% CO2 concentration, 93% N2 concentration, and at a temperature of 37° C.
The compounds of the present invention to be used in the present test and the positive control drug (chloroquine) were dissolved in DMSO to make a test solution of a predetermined concentration. Cultured malaria parasite infected-erythrocytes were collected by centrifugation, and diluted with non-infected erythrocyte so that the early infection rate was 0.15%. Hematocrit level at that time was 2.5%.
200 μL of malaria infected solution was added to wells of a 96-well culture plate, and adjusted by adding a test solution containing drug of a predetermined concentration or a drug-free DMSO. Test solutions were taken by duplicates.
[…] […] Radiation intensity was measured with a beta plate liquid scintillation counter (Wallac), and malarial parasite infection rates of the test solution added group and the control group were calculated.
Growth inhibition rate (%)={1−(b−a)/(c−a)}×100 • a: early infection rate • b: infection rate when test solution was added • c: infection rate of the control 3. Growth Inhibition Test of Rat L6 Cells
Antimalarial activity of a sample was estimated from EC50 values of the sample against chloroquine resistant-Plasmodium falciparum and rat L6 cells. […] It means that the larger the value of the selection toxity, the less the risk of the side effect is. Chemotherapy index=(EC50 value of a sample against rat L6 cells)/(EC50 value of a sample against chloroquine resistant-Plasmodium falsiparum)

[1] = tested on: Trypanosoma brucei rhodesiense (STIB 900 strain); test: African trypanosome protozoa growth inhibition screening test
Procedure: In the present experiment, protozoa of Tripanosoma brucei rhodensiense (STIB 900 Strain), a trypomastigote living in blood stream, was used. The medium used in the experiment was a MEM medium which was sterilized with a filter and supplemented with 25 mM N-2-hydroxyeihylpiperazine-2-ethansulfonic acid (HEPES), 1 g/L glucose, 1% MEM non-essential amino acid, 0.2 mM 2-mercaptoethanol, 2 mM sodium pyruvate, 0.1 mM hypoxanthine, and 15% heat-treated horse serum. The protozoa was cultured in an atmosphere of CO2 concentration 5%, at a temperature of 37° C.
The compounds of the present invention to be used in the present test and the positive control drug (melarsoprol) were dissolved in dimethylsulfoxide (DMSO) to make a test solution of a predetermined concentration.
A medium containing 8×10^3 protozoa, and a test solution containing a drug of a predetermined concentration of a drug-free DMSO were added to wells of a 96-well culture plate, and subsequently, medium was added so that the amount in each well becomes 100 μL. Test solutions were taken by duplicates.
After culturing the culture plate for 72 hours in an incubator, growth inhibition activity was tested. Test was conducted as follows. 10 μL of Alamar Blue aqueous solution was added to each well, and the resultant was further cultured for 2 hours. Next, the culture plate was placed on a fluorescent micro-plate reader (Spectramax Gemeni XS; US Molecular Device), radiated at an excited wavelength of 536 nm. Fluorescent intensity was measured at 588 nm, to calculate the trypanosome protozoa infected rate of the test solution added-group, and of the control group.
(§1) Growth inhibition rate (%)={1−(b−a)/(c−a)}×100 • a: early infection rate • b: infection rate when test solution was added • c: infection rate of the control

[2] = tested on: Trypanosoma cruzi (Tulahuen C2C4 strain); test: American trypanosome protozoa growth inhibition screening test
Procedure: In the present experiment, amastigote and trypomastigote infected with rat L6 cells of protozoa of Trypanosoma cruzi (Tulahuen C2C4 starin) were used. As medium used in the test, RPMI 1640 medium containing L6 cells was supplemented so that L-glutamine (200 mM) become 1%, fetal bovine serum becomes 10%, which was cultured under CO2 concentration 5%, at 37° C.
The compounds of the present invention to be used in the present test and the positive control drug (benznidazole) were dissolved in DMSO to make a test solution of a predetermined concentration.
A medium containing 5×10^3 protozoa was added to wells of a 96-well culture plate, and pre-cultured for 48 hours. After replacing the medium, test solution containing drug of a predetermined concentration or a drug-free DMSO was added. Test solutions were taken by duplicates.
After culturing the culture plate in an incubator for 96 hours, growth inhibition activity was tested. Test was conducted as follows. 50 μL of CPRG/Nonidet was added to each well, and allowed to rest for 2 to 6 hours. Next, the culture plate was placed on a fluorescent micro-plate reader. The absorbance was measured at 540 nm, and the trypanosome infection rate of the test solution added group and control group were calculated.
as §1

[3] = Table 6, unit inferred, read-out: Trypanosoma brucei rhod.
[4] = Table 6, unit inferred, read-out: Trypanosoma cruzi

SMILES	Selective toxicity (Plasmodium falciparum K1)	EC50 (Plasmodium falciparum K1) [µg/mL]	EC50 [1, 3] [µg/mL]	EC50 [2, 4] [µg/mL]	EC50 ([1]; Table 5, 72 hours, Alamar Blue, read-out: 50% Growth inhibition concentration Trypanosoma brucei rhod.) [µg/mL]	EC50 ([2]; Trypanosoma cruzi, Table 5, in rat L6 cells, 96 hours, CPRG/Nonidet, read-out: 50% Growth inhibition concentration Trypanosoma cruzi) [µg/mL]
CCN(CCNS(C)(=O)=O)c1cc(C)c2nc3c4ccccc4c(=Nc4ccncc4)cc-3oc2c1 [Compound 1R, N-Ethyl-N-(2-methansulfonamidylethyl)-11-methyl-5-(pyridine-4-ylimino)-5H-benzo[a]phenoxazin-9-amine]	885	0.009 (≈ 0.0179 µM)	5.34 (≈ 10.7 µM)	2.01 (≈ 4.01 µM)		
CCN(CCNS(C)(=O)=O)c1cc(C)c2nc3c4ccccc4c(=Nc4ccccn4)cc-3oc2c1 [Compound 1S, N-Ethyl-N-(2-methansulfonamidylethyl)-11-methyl-5-(pyridine-2-ylimino)-5H-benzo[a]phenoxazin-9-amine]	43	0.007 (≈ 0.014 µM)	0.714 (≈ 1.42 µM)	0.376 (≈ 0.75 µM)		
CCN(CC)c1ccc2nc3c4ccccc4c(=Nc4ccc5ccccc5n4)cc-3oc2c1 [Compound 1H, N,N-Diethyl-5-(quinolin-2-ylimino)-5H-benzo[a]phenoxazin-9-amine]	2513				4.6 (≈ 10.3 µM)	3.31 (≈ 7.45 µM)
